The values below come from patent US6342247B1, “Pharmaceutical compositions containing irbesartan” (Sanofi-Synthelabo, priority 1995, dated 2002).

This data set is described as follows: Stability of tablets / hydrochlorothiazide degradation depending on excipients. In kind it is physicochemical. From the text: Under certain conditions, hydrochlorothiazide can hydrolyze to form, as by-product products, a free amine degradant and formaldehyde (D.S. Desai et al., International Journal of Phaxmaceutics, 107(2), 141-47 (1994)). The selection of excipients can impact the stability of hydrochlorothiazide. […] The aforementioned preferred compositions of the present invention containing irbesartan and hydrochlorothiazide are thus further advantageous since the excipients employed therein minimize or eliminate hydrochlorothiazide degradation.

As for `NS(=O)(=O)c1cc2c(cc1Cl)NCNS2(=O)=O` [hydrochlorothiazide], where the note is “poloxamer in the composition”, the degradation of hydrochlorothiazide entry is “increase the degradation”. For the same molecule, the stability of hydrochlorothiazide result is “formation of quantities of the free amine degradant” (povidone as binder) and “greater stability” (pregelatinized starch as binder, compared with povidone).
